Data published in PubChem BioAssay (NCI).
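GI50: concentration for 50% inhibition of growth. Definition used: TGI = concentration required for complete inhibition of growth.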

How the values were obtained:
Test in all cases: NCI anticancer screen, dose series, 384-well format
K-562 leukemia = test system: K-562 leukemia
NCI-H460 NSCLC = test system: NCI-H460 NSCLC
PC-3 prostate = test system: PC-3 prostate
NCI/ADR-RES ovarian = test system: NCI/ADR-RES ovarian
SNB-75 CNS = test system: SNB-75 CNS
COLO 205 colon = test system: COLO 205 colon
DU-145 prostate = test system: DU-145 prostate
UACC-62 melanoma = test system: UACC-62 melanoma
ACHN renal = test system: ACHN renal
HCT-15 colon = test system: HCT-15 colon
MALME-3M melanoma = test system: MALME-3M melanoma
OVCAR-8 ovarian = test system: OVCAR-8 ovarian
SF-268 CNS = test system: SF-268 CNS
CCRF-CEM leukemia = test system: CCRF-CEM leukemia
HCC-2998 colon = test system: HCC-2998 colon
UACC-257 melanoma = test system: UACC-257 melanoma
MDA-MB-468 breast = test system: MDA-MB-468 breast
TK-10 renal = test system: TK-10 renal
MDA-MB-231 breast = test system: MDA-MB-231 breast
OVCAR-4 ovarian = test system: OVCAR-4 ovarian
SNB-19 CNS = test system: SNB-19 CNS
RXF 393 renal = test system: RXF 393 renal
OVCAR-3 ovarian = test system: OVCAR-3 ovarian
T-47D breast = test system: T-47D breast
SF-295 CNS = test system: SF-295 CNS
BT-549 breast = test system: BT-549 breast
U251 glioblastoma = test system: U251 glioblastoma
KM12 colon = test system: KM12 colon
786-0 renal = test system: 786-0 renal
EKVX NSCLC = test system: EKVX NSCLC
SR leukemia = test system: SR leukemia
RPMI-8226 leukemia = test system: RPMI-8226 leukemia
HS 578T breast = test system: HS 578T breast
A498 renal = test system: A498 renal
SF-539 CNS = test system: SF-539 CNS
NCI-H23 lung = test system: NCI-H23 lung
HOP-92 NSCLC = test system: HOP-92 NSCLC
NCI-H322M lung = test system: NCI-H322M lung
MOLT-4 leukemia = test system: MOLT-4 leukemia
CAKI-1 renal = test system: CAKI-1 renal
SK-MEL-28 melanoma = test system: SK-MEL-28 melanoma
HOP-62 NSCLC = test system: HOP-62 NSCLC
NCI-H522 lung = test system: NCI-H522 lung
M14 melanoma = test system: M14 melanoma
HL-60(TB) leukemia = test system: HL-60(TB) leukemia
SK-MEL-5 melanoma = test system: SK-MEL-5 melanoma
SW-620 colon = test system: SW-620 colon
HT29 colon = test system: HT29 colon
NCI-H226 lung = test system: NCI-H226 lung
MDA-MB-435 melanoma = test system: MDA-MB-435 melanoma
MCF7 breast = test system: MCF7 breast
SK-OV-3 ovarian = test system: SK-OV-3 ovarian
IGROV1 ovarian = test system: IGROV1 ovarian
UO-31 renal = test system: UO-31 renal
HCT-116 colon = test system: HCT-116 colon
LOX IMVI melanoma = test system: LOX IMVI melanoma
A549 NSCLC = test system: A549 NSCLC
SN12C renal = test system: SN12C renal

O=c1cc(-c2cccc3c2Sc2ccccc2S3)oc(N2CCOCC2)c1
GI50 (K-562 leukemia): 5.04 µM | TGI (K-562 leukemia): 16.3 µM | GI50 (NCI-H460 NSCLC): 14.4 µM | TGI (NCI-H460 NSCLC): 28 µM | GI50 (PC-3 prostate): 6.39 µM | TGI (PC-3 prostate): 19.3 µM | GI50 (NCI/ADR-RES ovarian): 11.1 µM | TGI (NCI/ADR-RES ovarian): 23.2 µM | GI50 (SNB-75 CNS): 10.7 µM | TGI (SNB-75 CNS): 22.7 µM | GI50 (COLO 205 colon): 15.4 µM | TGI (COLO 205 colon): 28.9 µM | GI50 (DU-145 prostate): 12.9 µM | TGI (DU-145 prostate): 25.7 µM | GI50 (UACC-62 melanoma): 10.4 µM | TGI (UACC-62 melanoma): 22.3 µM | GI50 (ACHN renal): 14.8 µM | TGI (ACHN renal): 28.1 µM | GI50 (HCT-15 colon): 7.02 µM | TGI (HCT-15 colon): 19.8 µM | GI50 (MALME-3M melanoma): 6.31 µM | TGI (MALME-3M melanoma): 19.2 µM | GI50 (OVCAR-8 ovarian): 12.8 µM | TGI (OVCAR-8 ovarian): 25.7 µM | GI50 (SF-268 CNS): 12.1 µM | TGI (SF-268 CNS): 24.7 µM | GI50 (CCRF-CEM leukemia): 7.99 µM | TGI (CCRF-CEM leukemia): 20.5 µM | GI50 (HCC-2998 colon): 2.98 µM | TGI (HCC-2998 colon): 11.6 µM | GI50 (UACC-257 melanoma): 10.2 µM | TGI (UACC-257 melanoma): 21.9 µM | GI50 (MDA-MB-468 breast): 8.61 µM | TGI (MDA-MB-468 breast): 20.7 µM | GI50 (TK-10 renal): 12 µM | TGI (TK-10 renal): 24.4 µM | GI50 (MDA-MB-231 breast): 11.3 µM | TGI (MDA-MB-231 breast): 23.5 µM | GI50 (OVCAR-4 ovarian): 12.9 µM | TGI (OVCAR-4 ovarian): 25.6 µM | GI50 (SNB-19 CNS): 13.9 µM | TGI (SNB-19 CNS): 26.9 µM | GI50 (RXF 393 renal): 4.89 µM | TGI (RXF 393 renal): 17.6 µM | GI50 (OVCAR-3 ovarian): 12.7 µM | TGI (OVCAR-3 ovarian): 25.5 µM | GI50 (T-47D breast): 10.1 µM | TGI (T-47D breast): 21.8 µM | GI50 (SF-295 CNS): 13.2 µM | TGI (SF-295 CNS): 26.1 µM | GI50 (BT-549 breast): 7.8 µM | TGI (BT-549 breast): 20.5 µM | GI50 (U251 glioblastoma): 12.7 µM | TGI (U251 glioblastoma): 25.5 µM | GI50 (KM12 colon): 5.64 µM | TGI (KM12 colon): 17.7 µM | GI50 ([…]-0 renal): 10.6 µM | TGI (786-0 renal): 22.6 µM | GI50 (EKVX NSCLC): 11.1 µM | TGI (EKVX NSCLC): 23.2 µM | GI50 (SR leukemia): 2.53 µM | TGI (SR leukemia): 4.95 µM | GI50 (RPMI-8226 leukemia): 3.35 µM | TGI (RPMI-8226 leukemia): 13.9 µM | GI50 (HS 578T breast): 6.58 µM | TGI (HS 578T breast): 18.5 µM | GI50 (A498 renal): 4.26 µM | TGI (A498 renal): 15.3 µM | GI50 (SF-539 CNS): 12.2 µM | TGI (SF-539 CNS): 24.9 µM | GI50 (NCI-H23 lung): 16 µM | TGI (NCI-H23 lung): 29.6 µM | GI50 (HOP-92 NSCLC): 10.1 µM | TGI (HOP-92 NSCLC): 21.7 µM | GI50 (NCI-H322M lung): 11 µM | TGI (NCI-H322M lung): 23.1 µM | GI50 (MOLT-4 leukemia): 7.2 µM | TGI (MOLT-4 leukemia): 19.9 µM | GI50 (CAKI-1 renal): 5.15 µM | TGI (CAKI-1 renal): 18.4 µM | GI50 (SK-MEL-28 melanoma): 10.4 µM | TGI (SK-MEL-28 melanoma): 22.2 µM | GI50 (HOP-62 NSCLC): 13.6 µM | TGI (HOP-62 NSCLC): 26.6 µM | GI50 (NCI-H522 lung): 12.4 µM | TGI (NCI-H522 lung): 24.9 µM | GI50 (M14 melanoma): 10.6 µM | TGI (M14 melanoma): 22.5 µM | GI50 (HL-60(TB) leukemia): 1.52 µM | TGI (HL-60(TB) leukemia): 3.17 µM | GI50 (SK-MEL-5 melanoma): 10.7 µM | TGI (SK-MEL-5 melanoma): 22.7 µM | GI50 (SW-620 colon): 15.9 µM | TGI (SW-620 colon): 29.6 µM | GI50 (HT29 colon): 12 µM | TGI (HT29 colon): 24.7 µM | GI50 (NCI-H226 lung): 12.7 µM | TGI (NCI-H226 lung): 25.3 µM | GI50 (MDA-MB-435 melanoma): 5.13 µM | TGI (MDA-MB-435 melanoma): 16.3 µM | GI50 (MCF7 breast): 6.98 µM | TGI (MCF7 breast): 19.7 µM | GI50 (SK-OV-3 ovarian): 15.2 µM | TGI (SK-OV-3 ovarian): 28.7 µM | GI50 (IGROV1 ovarian): 7.75 µM | TGI (IGROV1 ovarian): 20.2 µM | GI50 (UO-31 renal): 6.91 µM | TGI (UO-31 renal): 20.2 µM | GI50 (HCT-116 colon): 9.36 µM | TGI (HCT-116 colon): 21.6 µM | GI50 (LOX IMVI melanoma): 12.9 µM | TGI (LOX IMVI melanoma): 25.6 µM | GI50 (A549 NSCLC): 11.4 µM | TGI (A549 NSCLC): 23.8 µM | GI50 (SN12C renal): 11.5 µM | TGI (SN12C renal): 23.8 µM
